This is an account of results in US12240840B2, “Amide-substituted heterocyclic compounds for the treatment of conditions related to the modulation of IL-12, IL-23 and/or IFN-alpha” (BRISTOL-MYERS SQUIBB COMPANY, priority 2018, dated 2025).

The subject of this assay is IFNα-induced pSTAT5 (pY694) in CD3 positive cells of human whole blood. In words: IFNα-Induced STAT Phosphorylation in Human Whole Blood. The class given is cell-based. Particulars: Homo sapiens, 1 h compound incubation, 1000 U/mL recombinant human IFNα A/D for 15 min, pSTAT5 in CD3 positive population, read-out: Human WB IFNα-Induced Stat Phosph. (IC50). In a few lines: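 Read-out is median fluorescence intensity of pSTAT5 (pY694) in the CD3-positive gate, by flow cytometry after fix/lyse and permeabilization. Before that, whole human blood anticoagulated with EDTA or ACD-A received compound for an hour and 1000 U/mL IFNα A/D for 15 min.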

With `[2H]C([2H])([2H])NC(=O)c1nnc(NC(=O)C2CC2)cc1Nc1cccc(-c2nc(C)c(C(=O)N(C)CC)s2)c1OC` [Example 370], the IC50 was 160 nM. Turning to `[2H]C([2H])([2H])NC(=O)c1nnc(NC(=O)C2CC2)cc1Nc1cccc(-c2ncc(C(=O)N3[C@@H]4CC[C@H]3CC(N(C)C)C4)s2)c1OC` (stereo partly shown) [Example 344], the IC50 came to 30 nM. `[2H]C([2H])([2H])NC(=O)c1cnc(NC(=O)C2CC2)cc1Nc1cccc(-c2noc(CO)n2)c1OC` [Example 98]: the half-inhibitory concentration (IC50) was 23 nM.

Regarding `[2H]C([2H])([2H])NC(=O)c1nnc(NC(=O)C2CC2)cc1Nc1cccc(-c2cc(C(=O)N3CCN(CCO)CC3)n(C)n2)c1OC` [Example 476], the 50% inhibitory concentration (IC50) was found to be 60 nM. To `[2H]C([2H])([2H])NC(=O)c1nnc(NC(=O)C2CC2)cc1Nc1cccc(-c2ncc(C(=O)N3CC(CO)C3)s2)c1OC` [Example 345] belongs 180 nM.

Take `[2H]C([2H])([2H])NC(=O)c1nnc(NC(=O)C2CC2)cc1Nc1cccc(-c2nc([C@H](COC(C)=O)NC(C)=O)no2)c1OC` [Example 200]: the IC50 amounted to 760 nM. Then `[2H]C([2H])([2H])NC(=O)c1nnc(NC(=O)C2CC2)cc1Nc1cccc(-c2nc([C@@H](NC(=O)CC)[C@@H](C)O)no2)c1OC` [Example 190], with 2360 nM. In the case of `[2H]C([2H])([2H])NC(=O)c1nnc(NC(=O)C2CC2)cc1Nc1cccc(-c2noc(C3(C(=O)N4CCOCC4)CC3)n2)c1OC` [Example 28], the IC50 amounted to 210 nM. Turning to `[2H]C([2H])([2H])NC(=O)c1nnc(NC(=O)C2CC2)cc1Nc1cccc(-c2nc(C)c(C(=O)NCCCN(C)C)s2)c1OC` [Example 357], the half-inhibitory concentration (IC50) is 880 nM.

For `[2H]C([2H])([2H])NC(=O)c1nnc(NC(=O)C2CC2)cc1Nc1cccc(-c2nc([C@@H](N)[C@@H](C)O)no2)c1OC` [Example 189], the IC50 is 100 nM.

With `COc1c(Nc2cc(NC(=O)C3CC3)nnc2C(N)=O)cccc1-c1noc(CN(C)S(=O)(=O)C2CC2)n1` [Example 9], the IC50 was determined as 16 nM. With `COCc1nc(-c2cccc(Nc3cc(NC(=O)C4CC4)nnc3C(N)=O)c2OC)no1` [Example 67], the half-inhibitory concentration (IC50) was 60 nM. With `COCC(=O)NCCn1ncc(-c2cccc(Nc3cc(NC(=O)C4CC4)ncc3C(N)=O)c2OC)n1` [Example 445], the half-inhibitory concentration (IC50) came out at 150 nM. Then `[2H]C([2H])([2H])NC(=O)c1nnc(Nc2ccc(C)nn2)cc1Nc1cccc(-c2ncc(C(=O)N3CCS(=O)(=O)CC3)s2)c1OC` [Example 383], with 30 nM; and `[2H]C([2H])([2H])NC(=O)c1nnc(NC(=O)C2CC2)cc1Nc1cccc(-c2ccn(CCN)n2)c1OC` [Example 465], with 130 nM. As to `[2H]C([2H])([2H])NC(=O)c1nnc(NC(=O)C2CC2)cc1Nc1cccc(-c2cc(C(=O)NC(CO)CO)n(C)n2)c1OC` [Example 523], the IC50 came to 1680 nM.

On to `COc1c(Nc2cc(NC(=O)C3CC3)nnc2C(N)=O)cccc1-c1ncc(C(=O)N2CCC(CO)CC2)o1` [Example 418], for which the IC50 was found to be 130 nM.

For `[2H]C([2H])([2H])NC(=O)c1nnc(NC(=O)C2CC2)cc1Nc1cccc(-c2nc(CN3CC4CN(C(C)=O)CC4C3)no2)c1OC` (stereo not shown) [Example 233], the half-inhibitory concentration (IC50) is 100 nM.

In the case of `[2H]C([2H])([2H])NC(=O)c1nnc(NC(=O)C2CC2)cc1Nc1cccc(-c2cc(C(=O)N3C[C@@H](C)O[C@@H](C)C3)n(C)n2)c1OC` [Example 525], the IC50 is 240 nM. Take `[2H]C([2H])([2H])NC(=O)c1nnc(NC(=O)C2CC2)cc1Nc1cccc(-c2nc(COCc3ccccc3)no2)c1OC` [Example 144]: the half-inhibitory concentration (IC50) was found to be 1000 nM. Consider `[2H]C([2H])([2H])NC(=O)c1nnc(NC(=O)C2CC2)cc1Nc1cccc(-c2cnn(CCNC(=O)CO)c2)c1OC` [Example 558], for which the IC50 worked out at 1300 nM. To `[2H]C([2H])([2H])NC(=O)c1nnc(NC(=O)C2CC2)cc1Nc1cccc(-c2nc(CN(C)C(=O)OC(C)(C)C)no2)c1OC` [Example 167] belongs 2420 nM. On to `[2H]C([2H])([2H])NC(=O)c1nnc(NC(=O)C2CC2)cc1Nc1cccc(-c2cnn(CCNC(=O)COC)n2)c1OC` [Example 433], for which the IC50 worked out at 160 nM. Then `[2H]C([2H])([2H])NC(=O)c1nnc(NC(=O)C2CC2)cc1Nc1cccc(-c2nc(CN3CC4CN(S(C)(=O)=O)CC4C3)no2)c1OC` (stereo not shown) [Example 235], with 50 nM; and `[2H]C([2H])([2H])NC(=O)c1cnc(NC(=O)C2CC2)cc1Nc1cccc(-c2noc(CN(C)S(C)(=O)=O)n2)c1OC` [Example 94], with 11 nM. Take `[2H]C([2H])([2H])NC(=O)c1nnc(NC(=O)C2CC2)cc1Nc1cccc(-c2ncc(C(=O)N3CCC(N(CC)CC)CC3)s2)c1OC` [Example 343]: the IC50 was 22 nM. As to `COC(=O)N1CCN(Cc2nc(-c3cccc(Nc4cc(NC(=O)C5CC5)nnc4C(N)=O)c3OC)no2)CC1` [Example 39], the IC50 is 23 nM.

As to `[2H]C([2H])([2H])NC(=O)c1cnc(NC(=O)C2CC2)cc1Nc1cccc(-c2csc(C(=O)NCCOC)n2)c1OC` [Example 569], the IC50 was 590 nM. Consider `[2H]C([2H])([2H])NC(=O)c1cnc(NC(=O)CC)cc1Nc1cccc(-c2noc(COC)n2)c1OC` [Example 88], for which the half-maximal inhibitory concentration (IC50) was 230 nM. As to `[2H]C([2H])([2H])NC(=O)c1nnc(NC(=O)C2CC2)cc1Nc1cccc(-c2cc(C(C)(C)O)n(C)n2)c1OC` [Example 487], the IC50 came out at 200 nM.

With `[2H]C([2H])([2H])NC(=O)c1nnc(NC(=O)C2CC2)cc1Nc1cc(F)cc(-c2cc(C(=O)N3CCC(N4CCCC4)CC3)n(C)n2)c1OC` [Example 516], the IC50 was found to be 170 nM. `[2H]C([2H])([2H])NC(=O)c1nnc(NC(=O)C2CC2)cc1Nc1cccc(-c2noc(C(C)(C)O)n2)c1OC` [Example 73]: the IC50 came to 280 nM. Then `[2H]C([2H])([2H])NC(=O)c1nnc(NC(=O)C2CC2)cc1Nc1cccc(-c2nc(CC(=O)NCC)no2)c1OC` [Example 178], with 550 nM; and `[2H]C([2H])([2H])NC(=O)c1nnc(NC(=O)C2CC2)cc1Nc1cccc(-c2cc(C(=O)N(C)CC(O)CO)n(C)n2)c1OC` (stereo not shown) [Example 520], with 770 nM. Then `COc1c(Nc2cc(NC(=O)C3CC3)nnc2C(N)=O)cccc1-c1noc([C@@H]2C[C@@H](O)CN2S(C)(=O)=O)n1` [Example 11], with 21 nM; and `[2H]C([2H])([2H])NC(=O)c1nnc(NC(=O)C2CC2)cc1Nc1cccc(-c2ncc(CNC(=O)CC#N)s2)c1OC` [Example 264], with 1550 nM. As for `[2H]C([2H])([2H])NC(=O)c1nnc(NC(=O)C2CC2)cc1Nc1cccc(-c2nc(CN3CCN(C(=O)CC#N)CC3=O)no2)c1OC` [Example 139], the IC50 was 410 nM. Then `[2H]C([2H])([2H])NC(=O)c1nnc(NC(=O)C2CC2)cc1Nc1cccc(-c2ncc(C(=O)N3CCS(=O)(=O)CC3)s2)c1OC` [Example 273], with 70 nM; and `[2H]C([2H])([2H])NC(=O)c1nnc(NC(=O)C2CC2)cc1Nc1cccc(-c2ncc(C(=O)N3CCC(CCCO)CC3)s2)c1OC` [Example 353], with 170 nM; and `[2H]C([2H])([2H])NC(=O)c1nnc(NC(=O)C2CC2)cc1Nc1cccc(-c2nc(CNC(=O)COC)no2)c1OC` [Example 152], with 1310 nM.

In the case of `[2H]C([2H])([2H])NC(=O)c1nnc(NC(=O)C2CC2)cc1Nc1cccc(-c2nc(C)c(C(=O)NCC)s2)c1OC` [Example 360], the IC50 stood at 270 nM. Turning to `[2H]C([2H])([2H])NC(=O)c1nnc(NC(=O)C2CC2)cc1Nc1cccc(-c2cc(C(=O)N3CCC(N4CCN(CCO)CC4)CC3)n(C)n2)c1OC` [Example 524], the IC50 turned out to be 3400 nM. To `[2H]C([2H])([2H])NC(=O)c1nnc(NC(=O)C2CC2)cc1Nc1cccc(-c2nc(CNC(=O)CN(C)C)no2)c1OC` [Example 147] belongs 1720 nM; to `[2H]C([2H])([2H])NC(=O)c1nnc(NC(=O)C2CC2)cc1Nc1cccc(-c2nc([C@H](COC(C)(C)C)NC(=O)OC(C)(C)C)no2)c1OC` [Example 197], 6200 nM; to `[2H]C([2H])([2H])NC(=O)c1nnc(NC(=O)C2CC2)cc1Nc1cc(F)cc(-c2cc(C(=O)N3CCN(CCO)CC3)n(C)n2)c1OC` [Example 484], 100 nM.

Regarding `COc1c(Nc2cc(NC(=O)C3CC3)nnc2C(N)=O)cccc1-c1noc(CN2CCOCC2)n1` [Example 8], the IC50 worked out at 21 nM. On to `[2H]C([2H])([2H])NC(=O)c1nnc(NC(=O)C2CC2)cc1Nc1cccc(-c2ncc(C(=O)NCCN3CCCC3)s2)c1OC` [Example 301], for which the half-maximal inhibitory concentration (IC50) is 30 nM. Then `COc1c(Nc2cc(NC(=O)C3CC3)nnc2C(N)=O)cccc1-c1noc(CO)n1` [Example 70], with 14 nM; and `[2H]C([2H])([2H])NC(=O)c1nnc(NC(=O)C2CC2)cc1Nc1cccc(-c2nc(CN3CCS(=O)(=O)CC3)no2)c1OC` [Example 164], with 200 nM. Then `[2H]C([2H])([2H])NC(=O)c1nnc(NC(=O)C2CC2)cc1Nc1cccc(-c2ncc(C(=O)NCCCCC)s2)c1OC` [Example 316], with 330 nM. To `COc1c(Nc2cc(NC(=O)C3CC3)nnc2C(N)=O)cccc1-c1noc(CN(C)C)n1` [Example 63] belongs 30 nM; to `[2H]C([2H])([2H])NC(=O)c1nnc(Nc2ccc(C)nn2)cc1Nc1cc(F)cc(-c2cc(C(=O)N(C)C)n(C)n2)c1OC` [Example 555], 40 nM; to `COc1c(Nc2cc(NC(=O)C3CC3)nnc2C(N)=O)cccc1-c1noc(CCS(C)(=O)=O)n1` [Example 71], 25 nM. As to `[2H]C([2H])([2H])NC(=O)c1nnc(NC(=O)C2CC2)cc1Nc1cccc(-c2ncc(C(=O)N3CCCN(C)CC3)s2)c1OC` [Example 294], the IC50 is 70 nM.

Turning to `[2H]C([2H])([2H])NC(=O)c1nnc(NC(=O)C2CC2)cc1Nc1cccc(-c2nc(C3(NC(C)=O)CC3)no2)c1OC` [Example 165], the IC50 worked out at 530 nM.

The term IC50 denotes the point on the concentration scale where inhibition reaches its midpoint.
